Experimental data as given in patent publication US9328138B2 (priority 2011, dated 2016).

Assays:
[1] = biological target: T1, HCV genotype 1b (BK) NS3 modified enzyme with a R155K mutation (Hepatitis C virus genotype 1b, UniProt P26663, R1181K); test: HCV NS3 protease time-resolved fluorescence (TRF) assay, genotype 1b R155K; assay type: biochemical; details: Ki 1b R155K
T1 construct: HCV genotype 1b (BK) NS3 modified enzyme
Summary of the method: (§1)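 Inhibitor titrations are mixed with NS3/NS4A in pH 7.5 HEPES buffer containing 10 mM DTT and 15% glycerol for 10 min before substrate (25 nM final) is added. After 6 h at room temperature, delayed fluorescence is read and fitted to a four-parameter curve for IC50.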

[2] = biological target: HCV NS3 protease genotype 3a (3A-1) (Hepatitis C virus genotype 3a, UniProt Q81258); test: HCV NS3 protease time-resolved fluorescence (TRF) assay, genotype 3a; assay type: biochemical; details: Ki 3a
Summary of the method: as §1

[3] = genotype 1b (BK) NS3 R155K, single value

Row | SMILES | Ki [1, 3] [nM] | Ki [2] [nM] | Ki ([1]; first of two values printed in the cell (not explained)) [nM] | Ki ([1]; second of two values printed in the cell (not explained)) [nM]
1 | C=C[C@@H]1C[C@]1(NC(=O)[C@@H]1C[C@@H]2CN1C(=O)[C@H](C(C)(C)C)NC(=O)O[C@@H]1CCC[C@H]1CCCCCc1c(nc3ccccc3c1O)O2)C(=O)NS(=O)(=O)C1(COC)CC1 [Example 35, (3aR,7S,10S,12R,24aR)-7-tert-butyl-N-[(1R,2S)-2-ethenyl-1-({[1-(methoxymethyl)cyclopropyl]sulfonyl}carbamoyl)cyclopropyl]-19-hydroxy-5,8-dioxo-1,2,3,3a,5,6,7,8,11,12, 20,21,22,23,24,24a-hexadecahydro-10H-9,12-methanocyclopenta[18,19][1,10,3,6] dioxadiazacyclononadecino[11,12-b]quinoline-10-carboxamide] | 0.15 | 2 |  | 
2 | C=C[C@@H]1C[C@]1(NC(=O)[C@@H]1C[C@@H]2CN1C(=O)[C@H](C(C)(C)C)NC(=O)O[C@@H]1C[C@H]1CCCCCc1c(nc3ccccc3c1OCCCN1CCCC1)O2)C(=O)NS(=O)(=O)C1(C)CC1 [Example 117, (1aR,5S,8S,10R,22aR)-5-tert-butyl-N-[(1R,2S)-2-ethenyl-1-{[(1-methylcyclopropyl)sulfonyl]carbamoyl}cyclopropyl]-3,6-dioxo-17-[3-(pyrrolidin-1-yl)propoxy]-1,1a,3,4,5,6,9,10,18,19,20,21,22,22a-tetradeca hydro-8H-7,10-methano cyclopropa[18,19][1,10,3,6] dioxadiazacyclononadecino [11,12-b]quinoline-8-carboxamide] | 0.08 | 0.93 |  | 
3 | C=C[C@@H]1C[C@]1(NC(=O)[C@@H]1C[C@@H]2CN1C(=O)[C@H](C1CCCC1)NC(=O)O[C@@H]1CCC[C@H]1CC/C=C/Cc1c(nc3ccccc3c1OCC(F)(F)CO)O2)C(=O)NS(=O)(=O)C1CC1 [Example 73, (3aR,7S,10S,12R,21E,24aS)-7-cyclopentyl-N-{(1R,2S)-1-[(cyclopropylsulfonyl)carbamoyl]-2-ethenylcyclopropyl}-19-(2,2-difluoro-3-hydroxypropoxy)-5,8-dioxo-1,2,3,3a,5,6,7,8,11,12,20,23,24,24a-tetradecahydro-10H-9,12-methanocyclopenta[18,19][1,10,3,6]dioxadiazacyclononadecino[11,12-b]quinoline-10-carboxamide] | 0.14 | 2.5 |  | 
4 | C=C[C@@H]1C[C@]1(NC(=O)[C@@H]1C[C@@H]2CN1C(=O)[C@H](C(C)(C)C)NC(=O)O[C@@H]1C[C@H]1CCCCCc1c(nc3ccccc3c1OCCCN(CCO)Cc1ccccc1)O2)C(=O)NS(=O)(=O)C1(C)CC1 [Example 187, (1aR,5S,8S,10R,22aR)-17-{3-[benzyl(2-hydroxyethyl)amino]propoxy}-5-tert-butyl-N-[(1R,2S)-2-ethenyl-1-{[(1-methylcyclopropyl)sulfonyl]carbamoyl}cyclopropyl]-3,6-dioxo-1,1a, 3,4,5,6,9,10,18,19,20,21,22,22a-tetradecahydro-8H-7,10-methanocyclopropa[18,19][1,10,3,6] dioxadiazacyclononadecino[11,12-b] quinoline-8-carboxamide] | 0.24 | 6.1 |  | 
5 | C=C[C@@H]1C[C@]1(NC(=O)[C@@H]1C[C@@H]2CN1C(=O)[C@H](C(C)(C)C)NC(=O)O[C@@H]1C[C@H]1CCCCCc1c(nc3ccccc3c1OC1CC3CCC(C1)N3CC)O2)C(=O)NS(=O)(=O)C1(C)CC1 (single isomer, unassigned) [Example 281] |  | 1.25 | 0.016 | 0.125
6 | C=C[C@@H]1C[C@]1(NC(=O)[C@@H]1C[C@@H]2CN1C(=O)[C@H](C(C)(C)C)NC(=O)O[C@@H]1C[C@H]1CCCCCc1c(nc3ccccc3c1OCCCN(C)Cc1ccn[nH]1)O2)C(=O)NS(=O)(=O)C1(C)CC1 [Example 202, (1aR,5S,8S,10R,22aR)-5-tert-butyl-N-[(1R,2S)-2-ethenyl-1-{[(1-methylcyclopropyl)sulfonyl]carbamoyl}cyclopropyl]-17-{3-[methyl(1H-pyrazol-5-ylmethyl)amino]propoxy}-3,6-dioxo-1,1a,3,4,5,6,9,10,18, 19,20,21,22,22a-tetradecahydro-8H-7,10-methanocyclopropa[18,19][1,10,3,6] dioxadiazacyclononadecino[11,12-b] quinoline-8-carboxamide] | 0.05 | 0.95 |  | 
7 | C=C[C@@H]1C[C@]1(NC(=O)[C@@H]1C[C@@H]2CN1C(=O)[C@H](C(C)(C)C)NC(=O)O[C@@H]1C[C@H]1CCCCCc1c(nc3c(F)cccc3c1OCCN1CCCCC1)O2)C(=O)NS(=O)(=O)C1(C)CC1 [Example 213, (1aR,5S,8S,10R,22aR)-5-tent-butyl-N-[(1R,2S)-2-ethenyl-1-{[(1-methylcyclopropyl)sulfonyl]carbamoyl}cyclopropyl]-13-fluoro-3,6-dioxo-17-[2-(piperidin-1-yl)ethoxy]-1,1a,3,4,5,6,9,10,18,19,20,21,22,22a-tetradecahydro-8H-7,10-methanocyclopropa[18,19][1,10,3,6] dioxadiazacyclononadecino[11,12-b]quinoline-8-carboxamide] | 0.36 | 3.8 |  | 
8 | C=C[C@@H]1C[C@]1(NC(=O)[C@@H]1C[C@@H]2CN1C(=O)[C@H](C(C)(C)C)NC(=O)O[C@@H]1C[C@H]1CCCCCc1c(nc3ccccc3c1OCCCN1CCCC(F)C1)O2)C(=O)NS(=O)(=O)C1(C)CC1 (stereo partly drawn) [Example 158, (1aR,5S,8S,10R,22aR)-5-tert-butyl-N-[(1R,2S)-2-ethenyl-1-{[(1-methylcyclopropyl)sulfonyl]carbamoyl}cyclopropyl]-17-[3-(3-fluoropiperidin-1-yl)propoxy]-3,6-dioxo-1,1a,3,4,5,6,9,10,18,19, 20,21,22,22a-tetradecahydro-8H-7,10-methanocyclopropa[18,19][1,10,3,6] dioxadiazacyclononadecino[11,12-b] quinoline-8-carboxamide] | 0.19 | 2.6 |  | 
9 | C=C[C@@H]1C[C@]1(NC(=O)[C@@H]1C[C@@H]2CN1C(=O)[C@H](C(C)(C)C)NC(=O)O[C@@H]1C[C@H]1CCCCCc1c(nc3ccccc3c1OCCCN1CCC(C)(O)C1)O2)C(=O)NS(=O)(=O)C1(C)CC1 (stereo partly drawn) [Example 209, (1aR,5S,8S,10R,22aR)-5-tert-butyl-N-[(1R,2S)-2-ethenyl-1-{[(1-methylcyclopropyl)sulfonyl]carbamoyl}cyclopropyl]-17-[3-(3-hydroxy-3-methylpyrrolidin-1-yl)propoxy]-3,6-dioxo-1,1a,3,4,5,6,9,10,18,19,20,21,22,22a-tetradeca hydro-8H-7,10-methanocyclopropa[18,19][1,10,3,6] dioxadiazacyclononadecino[11,12-b] quinoline-8-carboxamide] | 0.056 | 0.55 |  | 
10 | C=C[C@@H]1C[C@]1(NC(=O)[C@@H]1C[C@@H]2CN1C(=O)[C@H](C(C)(C)C)NC(=O)O[C@@H]1C[C@H]1CCCCCc1c(nc3ccccc3c1OCCCNC1CC1)O2)C(=O)NS(=O)(=O)C1(C)CC1 [Example 183, (1aR,5S,8S,10R,22aR)-5-tert-butyl-17-[3-(cyclopropylamino)propoxy]-N-[(1R,2S)-2-ethenyl-1-{[(1-methylcyclopropyl)sulfonyl]carbamoyl}cyclopropyl]-3,6-dioxo-1,1a,3,4,5,6,9,10, 18,19,20,21,22,22a-tetradeca hydro-8H-7,10-methanocyclopropa[18,19][1,10,3,6] dioxadiazacyclononadecino[11,12-b] quinoline-8-carboxamide] | 0.07 | 0.95 |  | 
